“Also recorded” adds a separate entry of the source.
Experiments:
[1] = system: hair cells of mouse OC's in culture; test: Protection against gentamicin-induced hair cell loss in mouse organ of Corti explants; assay type: cell-based; conditions: 24 h; for loss of hair cells: 50 μM gentamicin alone
Procedure: (§1) OCs were harvested then placed in culture medium [Dulbecco's Modified Eagle Medium supplemented with 10% FCS, 25 mM HEPES and 30 U/ml penicillin (Invitrogen, Carlsbad, Calif., USA)] and incubated for 24 hours at 37° C. in an atmosphere of 95% O2/5% CO2. After that period, the culture medium was replaced with fresh medium containing no compound or 200 μM gentamycin alone or 200 μM gentamicin with either 2 or 10 μM pioglitazone, and incubated for a further 48 hours at 37° C. Ten OC explants were used for each treatment condition.
(§2) After incubation with compounds, the OCs were fixed in 4% paraformaldehyde, washed and then stained with a fluorescein (FITC)-conjugated phalloidin to detect inner and outer hair cells. After staining, the OCs were visualized and photographed using a fluorescence microscope (Olympus FSX100). Outer and inner hair cells were separately quantitated for the apical, basal, and middle turn of each organ of Corti. The values for each turn were averaged for the 10 OCs used for each condition. Significant differences between treatment groups in numbers OHC and IHC were determined using analysis of variance (ANOVA) followed by the least significant difference (LSD) post-hoc test (Stat View 5.0). Differences associated with P-values of less than 0.05 were considered to be statistically significant. All data are presented as mean±SD.
Methods were similar to those in Example 1. The main differences were that mouse OC's were used rather than rat OC's. Moreover, treatment was performed for 24 hrs with 50 μM gentamicin. The number of OC's used for each experimental condition was 3-5. The concentrations of test substances were 2 μM and 10 μM for tesaglitazar and muraglitazar, and 25 μM and 150 μM for fenofibric acid.

[2] = system: hair cells of organ of Corti (OC) explants; test: Protection against gentamicin-induced hair cell loss in rat organ of Corti explants; assay type: cell-based, Sprague-Dawley rats
Procedure: All animal procedures were carried out according to protocols approved by the Kantonales Veterinäramt, Basel, Switzerland. Postnatal day 5 (p5) Sprague-Dawley rats were used for the studies. Studies were performed in vitro, using organ of Corti (OC) explants from p5 animals. Animals were sacrificed and the cochleae carefully dissected to separate the organ of Corti from the spiral ganglion, stria vascularis and Reissner's membrane [Sobkowicz H M, Loftus J M, Slapnick S M. Acta Otolaryngol Suppl. 1993; 502:3-36].
as §1, §2

[3] = system: noise-induced hearing loss; test: Protection against noise-induced hearing loss, auditory brainstem response (ABR); assay type: in vivo, guinea pigs; conditions: for threshold shift (ABR), mean±SD: single 40 μl round window application day before noise
From the text: The guinea pig model is the preferred animal species in hearing research. The agent application as well as the noise trauma was applied under general anesthesia. Upon arrival, animals underwent an acclimatization period of at least one week prior to experiments.
Guinea pigs were first anaesthetized and hearing evaluated by a standard ABR method then into treatment groups. Each animal received a single round window application of test substance to both ears. The following day, animals were exposed to 115 dB broad band noise for 2 hrs under anaesthesia. At one and two weeks following noise exposure, the animals underwent a second hearing evaluation.
Animals were dosed with a single 40 μl application of pioglitazone formulation or matching vehicle, onto the cochlear round window in both ears the day prior to noise exposure. For this approach, a hole was drilled in the rostral part of the skull to directly access the Bulla which allows drug application to the round window under visual control.
Animals were noise-exposed in a soundproof chamber (0.8×0.8×0.8 m, minimal attenuation 60 dB) for 2 h to broadband white noise (5-20 kHz) at 115 dB sound pressure level (SPL) under anaesthesia (60 mg/kg ketamine and 6 mg/kg xylazine). Noise was delivered binaurally by loudspeakers (HTC 11.19; Visaton, Haan, Germany) placed above the animal's head. The speakers were connected to an audio amplifier (Tangent AMP-50; Aulum, Denmark) and a DVD player.
At baseline before the noise exposure and on day 7 and 14 after noise, frequency-specific (2; 4; 8; 12; 16; 20; 24; 28; 32; 36; 40 kHz) auditory brainstem responses (ABR) were recorded in all treated animals and in controls. Auditory stimuli were delivered binaurally at different SPLs with a sinusoid generator (Model SSU2; Werk Fernmeldewesen, Berlin, Germany). Frequency output was controlled and adjusted with a digital counter (1941A Digital Counter; Fluke, Scarborough, Ontario, Canada). Sub-dermal needle electrodes were placed at the vertex (active), mastoid (reference), and in one foot (ground). ABR recordings were carried out with a Viking IV-measurement system (Viasys Healthcare, Conshohocken, Pa.). The brainstem responses were amplified (100,000×), filtered (bandpass 0.15-3 kHz), and averaged (300×) by the Viking IV-system. The amplitudes of the ABR waves were measured at different sound intensities by changing the attenuation of signal amplification. The amplitude-growth function was calculated for each tested frequency, and a linear regression was fitted to the linear portion of the data. The hearing threshold could be calculated for each frequency by extrapolating the linear amplitude-grow function of the regression line to zero. […]

[4] = 2 μM test substance with 50 μM gentamicin
[5] = 10 μM test substance with 50 μM gentamicin
[6] = concentration not stated, 50 μM gentamicin, medio-basal turns

Compound: COc1ccc(OC(=O)N(CC(=O)O)Cc2ccc(OCCc3nc(-c4ccccc4)oc3C)cc2)cc1 [Muraglitazar]
- protection from gentamicin-dependent hair cell loss [1, 4]: not effective
- protection from gentamicin-dependent hair cell loss [1, 5]: partially protective
- protection from gentamicin-dependent hair cell loss [1, 6]: protected from gentamicin-dependent hair cell loss; also recorded: significantly prevent gentamicin-dependent hair cell loss

Compound: CCc1ccc(CCOc2ccc(CC3SC(=O)NC3=O)cc2)nc1 (stereo not drawn) [Pioglitazone, pioglitazone]
- prevention of gentamicin-dependent hair cell loss (IHC and OHC; apical, basal, middle turns) ([2]; 2 μM pioglitazone with 200 μM gentamicin, 48 h): significantly prevent gentamicin-dependent hair cell loss in all turns
- prevention of gentamicin-dependent hair cell loss (IHC and OHC; apical, basal, middle turns) ([2]; 2 μM pioglitazone with 200 μM gentamicin, 48 h, listed as pioglitazone): completely prevent gentamicin-dependent hair cell loss in all turns
- prevention of gentamicin-dependent hair cell loss (IHC and OHC; apical, basal, middle turns) ([2]; 10 μM pioglitazone with 200 μM gentamicin, 48 h): significantly prevent gentamicin-dependent hair cell loss in all turns
- prevention of gentamicin-dependent hair cell loss (IHC and OHC; apical, basal, middle turns) ([2]; 10 μM pioglitazone with 200 μM gentamicin, 48 h, listed as pioglitazone): completely prevent gentamicin-dependent hair cell loss in all turns
- prevention of gentamicin-dependent hair cell loss ([2]; pioglitazone co-treatment, concentration not stated, 48 h): almost completely preventing gentamicin-dependent hair cell loss
- reduction in the threshold shifts vs. vehicle controls ([3]; hearing recorded 7-14 days after noise trauma): > 50%
- threshold shift (ABR), mean±SD ([3]; one week after noise (115 dB, 2 h), 5-20 kHz): 12.7±1.3 dB
- protection from noise-induced hearing loss ([3]; one week after noise, vs. vehicle): approximately 60%
- threshold shift (ABR), mean±SD ([3]; two weeks after noise (115 dB, 2 h)): 6.3±3.9 dB

Compound: Tesaglitazar
- protection from gentamicin-dependent hair cell loss [1, 4]: able to antagonize the effects of gentamicin and to preserve hair cell number and morphology
- protection from gentamicin-dependent hair cell loss [1, 5]: able to antagonize the effects of gentamicin and to preserve hair cell number and morphology
- protection from gentamicin-dependent hair cell loss [1, 6]: protected from gentamicin-dependent hair cell loss; also recorded: significantly prevent gentamicin-dependent hair cell loss

Compound: fenofibric acid
- protection from gentamicin-dependent hair cell loss ([1]; 25 μM test substance with 50 μM gentamicin): not effective
- protection from gentamicin-dependent hair cell loss ([1]; 150 μM test substance with 50 μM gentamicin): completely protective
- protection from gentamicin-dependent hair cell loss [1, 6]: protected from gentamicin-dependent hair cell loss; also recorded: significantly prevent gentamicin-dependent hair cell loss

Compound: gentamicin
- reduction of hair cell number ([2]; 200 μM gentamicin alone, 48 h in culture, each segment): 50-70%
- loss of hair cells [1]: approximately 50%
- loss of hair cells ([1]; listed as Gentamicin): 50%

Source: US20180021320A1, “Method of Preventing or Treating Hearing Loss” (SUPPORT-VENTURE GMBH, priority 2015, published 2018)
